Data from US20240024273A1, “TOPICAL ADMINISTRATION OF 2-(DIETHYLAMINO)ETHYL 2-(4-ISOBUTYLPHENYL)PROPRIONATE FOR TREATMENT OF DISEASES” (TECHFIELDS PHARMA CO., LTD., priority 2020, published 2024).

Test system: Subjects with Osteoarthritis of the Knee
Assay: Second Phase 2 study: safety (treatment-emergent adverse events)
Format: in vivo, human
Details: Oral Ibuprofen 3 × 400 mg, N = 71
Text: Safety assessments will be performed at each visit and will include assessment of AEs, vital signs (blood pressure, pulse rate, and oral temperature), clinical laboratories, physical examination, skin irritation, and electrocardiograms (ECGs) as indicated in the study flow chart, Table 47.
Safety assessments will include AEs, vital signs (blood pressures, pulse rate, and oral temperature), clinical laboratories, physical examination, skin irritation, and ECGs at various time points during the study as indicated in the study flow chart.
Adverse events of interest include: local skin reactions around the treated knee(s), upper stomach pain, GI bleeding, serious cardiovascular side effects (e.g., thrombotic events, myocardial infarction, or stroke), jaundice, elevated liver function tests, and nausea.
Safety analyses will be conducted on the SAS. Safety parameters will be listed and summarized using standard descriptive statistics, as appropriate. No formal statistical analyses are planned.

Structure (SMILES): CC(C)Cc1ccc(C(C)C(=O)O)cc1 (stereo not shown) [Ibuprofen, 2-(4-isobutylphenyl)propionic acid, reference compound]
- Infections and Infestations: number of adverse events: 32
- Metabolism and Nutrition Disorders: number of adverse events: 8
- Metabolism and Nutrition Disorders: percentage of subjects with adverse events: 11.3%
- Metabolism and Nutrition Disorders: subjects with adverse events: 8
- Tooth Infection: number of adverse events: 3
- Urinary Tract Infection: number of adverse events: 11
- Urinary Tract Infection: subjects with adverse events, number (percentage): 10(14.1%)
